Measured values from paper PMC11465068 (Journal of Lipid Research, 2024).

Biological target: T1, rhSphK1 (recombinant human sphingosine kinase 1) (Homo sapiens, UniProt Q9NYA1)
T1 construct: gene SPHK1; commercial recombinant human enzyme from two manufacturers
Assay: S1P formation by LC-MS/MS
Type: biochemical
Details: […] sphingosine, […] ATP, […] MgCl2, […] °C, […] h; range over two enzyme sources

T1 sequence (Q9NYA1 whole entry): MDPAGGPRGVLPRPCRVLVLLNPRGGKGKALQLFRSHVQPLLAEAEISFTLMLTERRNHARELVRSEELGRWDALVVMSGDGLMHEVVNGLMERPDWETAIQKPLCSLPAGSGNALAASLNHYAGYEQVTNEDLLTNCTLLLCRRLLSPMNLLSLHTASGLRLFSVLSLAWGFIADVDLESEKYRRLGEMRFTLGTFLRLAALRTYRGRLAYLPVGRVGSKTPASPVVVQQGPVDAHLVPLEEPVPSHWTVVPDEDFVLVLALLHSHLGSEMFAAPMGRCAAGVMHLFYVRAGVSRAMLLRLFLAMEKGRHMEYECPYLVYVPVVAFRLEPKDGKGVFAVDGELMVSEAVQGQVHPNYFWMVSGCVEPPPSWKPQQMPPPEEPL

% reduction of S1P formation at 50 μM: 32-34%
Compound: O=C(NCc1ccncc1)C12CC3CC(C1)CC(c1ccc(Cl)cc1)(C3)C2 [ABC294640]
